This note sets out measurements from patent US20040024024A1, “Aromatic sulfone hydroxamates and their use as protease inhibitors” (priority 2001, published 2004).

The term IC50 denotes the point on the concentration scale where inhibition reaches its midpoint.

Assay in all cases: In vitro MMP inhibition, IC50 determination (fluorogenic substrate I)
Common to all, as to type: biochemical
What all share (conditions): value outside parentheses (Ki in parenthesis)

For one experiment, the target named is T1, Human recombinant MMP-2 (Homo sapiens, UniProt P08253).
T1 construct: made in house; host or cells: MMP-2-transfected p2AHT2 cells
T1 sequence (P08253 110-660): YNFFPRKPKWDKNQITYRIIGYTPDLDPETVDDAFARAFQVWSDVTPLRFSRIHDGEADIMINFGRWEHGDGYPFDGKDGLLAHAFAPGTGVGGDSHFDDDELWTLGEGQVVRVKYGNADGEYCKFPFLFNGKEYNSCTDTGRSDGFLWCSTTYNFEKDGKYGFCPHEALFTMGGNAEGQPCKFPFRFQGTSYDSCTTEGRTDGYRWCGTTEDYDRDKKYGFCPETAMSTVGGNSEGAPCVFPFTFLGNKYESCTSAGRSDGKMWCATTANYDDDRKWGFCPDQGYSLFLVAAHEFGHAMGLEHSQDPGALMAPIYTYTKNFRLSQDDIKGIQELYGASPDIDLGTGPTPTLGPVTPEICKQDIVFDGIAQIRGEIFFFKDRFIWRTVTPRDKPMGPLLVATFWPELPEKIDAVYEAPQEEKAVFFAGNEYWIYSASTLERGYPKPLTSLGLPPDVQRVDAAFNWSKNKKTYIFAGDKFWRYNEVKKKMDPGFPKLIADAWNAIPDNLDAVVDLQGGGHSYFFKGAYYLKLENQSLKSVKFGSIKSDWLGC
The procedure, abridged: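 IC50 was derived from the concentration-dependent fall in fluorescence (ex 328, em 415 nm) on Gly-Leu cleavage of 4 μM MCA/Dpa-quenched substrate I. Assays ran at room temperature in pH 7.5 Tris/NaCl/CaCl2/Brij buffer with MMP-2 activated by trypsin or APMA; inhibitors were diluted from 1% DMSO stocks.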

In another experiment the target is T2, Human recombinant MMP-14 (Homo sapiens, UniProt P50281).
T2 construct: The catalytic domain enzyme was expressed in E. coli inclusion bodies, solubilized in urea; made in house
The method, boiled down:
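IC50 came from reduced fluorescence (ex 328 nm, em 415 nm) as inhibitor concentration rose, with 4 μM substrate I cleaved at Gly-Leu. Room-temperature incubation in pH 7.5 Tris buffer with 10 mM CaCl2; the E. coli-expressed, refolded MMP-14 catalytic domain was activated with trypsin or APMA.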

A further experiment concerns the target T3, Human recombinant MMP-9 (Homo sapiens, UniProt P14780).
T3 construct: made in house; host or cells: MMP-9-transfected HT1080 cells (spent media)
The procedure, abridged: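 Reduction in fluorescence (328 nm excitation, 415 nm emission) from cleavage of 4 μM quenched peptide substrate I, measured at room temperature against inhibitor concentration, gave IC50. Enzyme: trypsin- or APMA-activated MMP-9 purified from transfected HT1080 medium; buffer 100 mM Tris, 100 mM NaCl, 10 mM CaCl2, pH 7.5.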

The next experiment has as its target T4, Human recombinant MMP-13 (Homo sapiens, UniProt P45452).
T4 construct: made in house; host or cells: baculovirus / insect cells
The method, boiled down: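 Fluorescence at 415 nm (excitation 328 nm) reports Gly-Leu cleavage of 4 μM quenched methoxycoumarin peptide substrate I. Human recombinant MMP-13, activated by trypsin or APMA, was incubated at room temperature with varied inhibitor concentrations in pH 7.5 Tris/NaCl/CaCl2 buffer; IC50 derived from reduced fluorescence.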

Another experiment concerns the target T5, Human recombinant MMP-1 (Homo sapiens, UniProt P03956).
T5 construct: made in house; host or cells: MMP-1-transfected HT-1080 cells (spent media)
T5 sequence (P03956 100-469): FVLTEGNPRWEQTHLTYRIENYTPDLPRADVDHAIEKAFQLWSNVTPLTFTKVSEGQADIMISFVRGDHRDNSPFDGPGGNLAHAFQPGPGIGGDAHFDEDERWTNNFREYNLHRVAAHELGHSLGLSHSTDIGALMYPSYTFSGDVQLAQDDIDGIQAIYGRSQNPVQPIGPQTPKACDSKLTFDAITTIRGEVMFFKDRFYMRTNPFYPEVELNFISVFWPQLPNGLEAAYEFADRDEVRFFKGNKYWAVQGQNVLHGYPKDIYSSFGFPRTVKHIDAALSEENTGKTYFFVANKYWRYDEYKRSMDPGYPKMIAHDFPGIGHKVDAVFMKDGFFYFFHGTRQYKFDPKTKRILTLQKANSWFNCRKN
The procedure, abridged: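 Inhibitor dilutions were made in 100 mM Tris-HCl/100 mM NaCl/10 mM CaCl2 buffer, pH 7.5, and incubated at room temperature with activated proenzyme (from transfected HT-1080 media; APMA or trypsin) and 4 μM quenched methoxycoumarin peptide substrate. Loss of 415 nm fluorescence (328 nm excitation) against concentration gave IC50.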

T3 sequence (P14780 107-707 limits assumed): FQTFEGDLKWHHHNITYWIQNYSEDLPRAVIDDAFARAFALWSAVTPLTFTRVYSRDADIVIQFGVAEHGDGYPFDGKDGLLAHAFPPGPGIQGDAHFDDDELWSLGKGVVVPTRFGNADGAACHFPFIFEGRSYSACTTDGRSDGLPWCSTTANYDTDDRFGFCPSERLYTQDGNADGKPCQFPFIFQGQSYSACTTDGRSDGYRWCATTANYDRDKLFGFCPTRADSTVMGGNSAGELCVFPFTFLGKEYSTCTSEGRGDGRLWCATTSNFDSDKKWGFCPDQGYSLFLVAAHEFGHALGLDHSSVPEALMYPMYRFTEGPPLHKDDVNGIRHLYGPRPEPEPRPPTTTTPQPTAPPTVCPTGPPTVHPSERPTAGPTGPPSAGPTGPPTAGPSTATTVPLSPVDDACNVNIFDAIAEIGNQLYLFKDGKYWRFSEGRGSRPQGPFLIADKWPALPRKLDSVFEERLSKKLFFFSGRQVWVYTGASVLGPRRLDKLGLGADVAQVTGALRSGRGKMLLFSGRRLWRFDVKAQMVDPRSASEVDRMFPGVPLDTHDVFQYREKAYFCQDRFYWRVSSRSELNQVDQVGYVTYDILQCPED

Regarding `O=C(CCCOc1ccc(S(=O)(=O)C2(C(=O)NO)CCOCC2)cc1)c1ccc(-c2ccccc2)cc1` [Example 356], the IC50 at Human recombinant MMP-2 is 33.1 nM; at Human recombinant MMP-14, over 10000 nM; on Human recombinant MMP-9, 1650 nM; at Human recombinant MMP-13, 0.8 nM; on Human recombinant MMP-1 it was over 10000 nM.

For the compound `CN(C)c1ccc(NC(=O)CCCOc2ccc(S(=O)(=O)C3(C(=O)NO)CCOCC3)cc2)cc1` [Example 357], the IC50 at Human recombinant MMP-2 was 10.2 nM; at Human recombinant MMP-14 it was over 10000 nM; on Human recombinant MMP-9 it was 952 nM; on Human recombinant MMP-13 it was 1.7 nM; at Human recombinant MMP-1 it was over 10000 nM.

Take `O=C(NO)C1(S(=O)(=O)c2ccc(OCCCCCn3cnc4ccccc43)cc2)CCOCC1` [Example 359]: the 50% inhibitory concentration (IC50) on Human recombinant MMP-2 is 2.3 nM; at Human recombinant MMP-14, 7960 nM; at Human recombinant MMP-9 it was 1180 nM; on Human recombinant MMP-13, 1 nM; on Human recombinant MMP-1 it was over 10000 nM.

As to `O=C(NO)C1(S(=O)(=O)c2ccc(OCCCCCN3CCc4ccccc4C3)cc2)CCOCC1` [Example 360], the IC50 on Human recombinant MMP-2 is 9.7 nM; on Human recombinant MMP-14, 962 nM; at Human recombinant MMP-9, 547 nM; on Human recombinant MMP-13 it was 6.4 nM; at Human recombinant MMP-1, over 10000 nM.

With `CN(C)c1ccc(C(=O)NCCCOc2ccc(S(=O)(=O)C3(C(=O)NO)CCOCC3)cc2)cc1` [Example 361], the concentration for half-maximal inhibition (IC50) on Human recombinant MMP-2 was 500 nM; on Human recombinant MMP-14, over 10000 nM; on Human recombinant MMP-9 it was over 10000 nM; on Human recombinant MMP-13 it was 0.5 nM; at Human recombinant MMP-1 it was 6000 nM.

As to `CCCCOc1ccc(C(=O)NCCCOc2ccc(S(=O)(=O)C3(C(=O)NO)CCOCC3)cc2)cc1` [Example 364], the IC50 at Human recombinant MMP-2 is 250 nM; at Human recombinant MMP-14, over 10000 nM; at Human recombinant MMP-9 it was over 10000 nM; on Human recombinant MMP-13 it was 1.8 nM; on Human recombinant MMP-1, over 10000 nM.

`COC(=O)c1ccc(C(=O)NCCCOc2ccc(S(=O)(=O)C3(C(=O)NO)CCOCC3)cc2)cc1` [Example 368]: the IC50 at Human recombinant MMP-2 is 150 nM; at Human recombinant MMP-14 it was over 10000 nM; at Human recombinant MMP-9, 9000 nM; on Human recombinant MMP-13, 0.8 nM; on Human recombinant MMP-1, over 10000 nM.

For `Cc1ccc(C(=O)NCCCOc2ccc(S(=O)(=O)C3(C(=O)NO)CCOCC3)cc2)cc1C` [Example 371], the concentration for half-maximal inhibition (IC50) on Human recombinant MMP-2 was 1100 nM; on Human recombinant MMP-14, over 10000 nM; on Human recombinant MMP-9 it was 9600 nM; on Human recombinant MMP-13, 2.4 nM; on Human recombinant MMP-1, over 10000 nM.

For `Cc1ccc(C(=O)NCCCOc2ccc(S(=O)(=O)C3(C(=O)NO)CCOCC3)cc2)c(C)c1` [Example 373], the IC50 was 940 nM at Human recombinant MMP-2; over 10000 nM at Human recombinant MMP-14; 3940 nM on Human recombinant MMP-9; 7 nM on Human recombinant MMP-13; over 10000 nM on Human recombinant MMP-1.

With `O=C(NCCCOc1ccc(S(=O)(=O)C2(C(=O)NO)CCOCC2)cc1)c1cc2ccccc2cc1O` [Example 376], the IC50 is 360 nM on Human recombinant MMP-2; over 10000 nM on Human recombinant MMP-14; over 10000 nM at Human recombinant MMP-9; 0.8 nM on Human recombinant MMP-13; over 10000 nM at Human recombinant MMP-1.

Turning to `O=C(NCCCOc1ccc(S(=O)(=O)C2(C(=O)NO)CCOCC2)cc1)c1cnc(Cl)c(Cl)c1` [Example 384], the IC50 on Human recombinant MMP-2 was 176 nM; on Human recombinant MMP-14 it was over 10000 nM; at Human recombinant MMP-9 it was 2630 nM; at Human recombinant MMP-13, 0.8 nM; on Human recombinant MMP-1, over 10000 nM.

For `O=C(NCCCOc1ccc(S(=O)(=O)C2(C(=O)NO)CCOCC2)cc1)c1cccnc1` [Example 385], the 50% inhibitory concentration (IC50) was 253 nM on Human recombinant MMP-2; over 10000 nM at Human recombinant MMP-14; over 10000 nM on Human recombinant MMP-9; 3.3 nM at Human recombinant MMP-13; 4340 nM on Human recombinant MMP-1.

Take `Cc1cc(C(=O)NCCCOc2ccc(S(=O)(=O)C3(C(=O)NO)CCOCC3)cc2)no1` [Example 386]: the IC50 is 131 nM on Human recombinant MMP-2; 9720 nM on Human recombinant MMP-14; 35.3 nM on Human recombinant MMP-9; 1.2 nM on Human recombinant MMP-13; over 10000 nM on Human recombinant MMP-1.
